We go through three compounds from patent US20070093420A1, “Therapy procedure for drug delivery for trigeminal pain” (priority 2005, published 2007).

Where only a bound is given, the exact number is not on record here.

Common to all, as to assay type: in vivo, Sprague-Dawley rats
Assay [1] deals with pain sensing nerve cells in the trigeminal ganglion. The assay is described as follows: Nerve impulses of single pain sensing nerve cells in the trigeminal ganglion in response to noxious laser pulses to the face. Conditions: rat, 10 nmoles applied to the nose. The protocol: Sprague-Dawley rats (Charles River Laboratories) were anesthetized with isofluorane and a platinum electrode was inserted transcranially into the trigeminal ganglion. Nerve impulses (action potential) were recorded from single pain sensing nerve cells in the trigeminal ganglion in response to application of noxious laser pulses to the face of the rats. After recording responses to several identical laser pulses, 10 nmoles of oxytocin was applied to the nose of the rats. Thereafter, identical laser pulses were once again applied and recorded.

For assay [2], the system named is trigeminal nucleus caudalis wide dynamic range (WDR) neurons. The assay is described as follows: Electrical stimulation-induced responses of trigeminal nucleus caudalis WDR neurons, single unit extracellular recording. The following applies: rat. The protocol: Male Sprague-Dawley rats (Charles River Laboratories) were anesthetized with isoflurane and used in the following experiments. In the anesthetized rats, single unit, extracellular recordings were performed in trigeminal nucleus caudalis while stimulating the ipsilateral facial skin with constant-current bipolar electrical stimulation. Epoxylate-insulated, tungsten microelectrodes (10 MOhm) were used under stereotaxic coordinate control.
Shown are responses (action potentials per 30 stimuli) to repeated stimulation of a rat's face before oxytocin administration (pre-oxytocin). After administration with oxytocin at approximately 0.1 IU, responses were recorded every five minutes for 65 minutes. A second administration of oxytocin at the same dosage was administered at approximately 70 minutes after the first dose. The approximate site of the administration of the electrical stimulation is indicated by the black spot on a map of the rat's face (FIG. 3B).

For assay [3] the test system is unchanged. The assay is described as follows: Long-pulse laser-induced responses of trigeminal nucleus caudalis WDR neurons. The following applies: rat, intranasal 0.025 ml of 0.05 mg/ml. How it is done:
Male Sprague-Dawley rats (Charles River Laboratories) were anesthetized with isoflurane and used in the following experiments. In the anesthetized rats, single unit, extracellular recordings were performed in trigeminal nucleus caudalis while stimulating the ipsilateral facial skin with diode laser or constant-current bipolar electrical stimulation. Epoxylate-insulated, tungsten microelectrodes (10 MOhm) were used under stereotaxic coordinate control. […] Shown are responses (action potentials per second) to an 8 second-duration, 425 mA intensity laser stimulus to the site indicated by the black spot on a map of the rat's face (FIG. 4E).

Assay [4] has as its system second-order neurons in the trigeminal nucleus caudalis. The assay is described as follows: Electrical stimulus-induced windup of trigeminal nucleus caudalis neurons. The following applies: rat, intranasal 0.025 ml of 0.05 mg/ml. The source says:
Male Sprague-Dawley rats (Charles River Laboratories) were anesthetized with isoflurane and used in the following experiments. […] Needle electrodes were inserted subcutaneously at the site indicated in FIG. 5A by the black spot on the rat's head, and the skin was stimulated at 0.66 Hz, 2 msec duration, 3× C-fiber threshold for >25 times.

Assay [5] is described as follows: Withdrawal latencies after noxious laser thermal stimulation of ears or hindpaws after intranasal administration. The following applies: rat, intranasal 10 nmoles/kg, tested from five minutes after final application. The source says: One way to test activity of an analgesic agent in a rat model is by treatment-induced changes in latencies (times) of withdrawal in response to noxious heating of the skin, typically using an ear, the face or a hindpaw. Thus, application of coherent or non-coherent (non-laser) radiant heat to the ear, the face or hindpaw will elicit rapid withdrawal movements. […] Transmucosal or transdermal administration of analgesic agents to the trigeminal nerve to reduce trigeminal nerve-associated pain can be tested for regional and/or systemic analgesia. The rostral external part of a rat's ear is innervated by a branch of the mandibular nerve, itself a branch of the trigeminal nerve, thus after treatment an increase in latency to withdrawal time would indicate regional analgesia. […]
Sprague-Dawley rats (Charles River Laboratories) were lightly anesthetized with urethane and placed with minimal restraint on a heating pad to maintain their body temperature at 37° C. […] Baseline withdrawal latencies were measured by delivering 4 separate stimuli with a resting period of approximately 15 minutes between each stimulus. […] As described above, testing sessions were videotaped and analyzed.

Where [6] appears, read: intranasal approximately 0.1 IU, first dose.

Take `CC[C@H](C)[C@@H]1NC(=O)[C@H](Cc2ccc(O)cc2)NC(=O)[C@@H](N)CSSC[C@@H](C(=O)N2CCC[C@H]2C(=O)N[C@@H](CC(C)C)C(=O)NCC(N)=O)NC(=O)[C@H](CC(N)=O)NC(=O)[C@H](CCC(N)=O)NC1=O` [Oxytocin, Cys-Tyr-Ile-Gln-Asn-Cys-Pro-Leu-Gly]: the “neuronal response (average nerve impulses per laser pulse) post- vs pre-treatment (FIG. 2)” value in assay [1] is “significantly (p<0.05) reduced”. Also, the “responses (action potentials per 30 stimuli) after first administration (FIG. 3A)” value in assay [2] (intranasal approximately 0.1 IU, electrical stimulation of facial skin) is “significant reduction in responses”. In assay [2] (setting [6]), the “time after first administration at which significant reduction in responses began” value is 10 min and the “time post treatment until which reduction continued, when responses began to increase” value worked out at 50 min. For the same compound, the “time to significant reduction in responses after second treatment” value in assay [2] (second dose approximately 0.1 IU at approximately 70 minutes after the first) was at most 10 min.
`C[C@@H](O)[C@@H]1NC(=O)[C@H](CCCCN)NC(=O)[C@@H](Cc2c[nH]c3ccccc23)NC(=O)[C@H](Cc2ccccc2)NC(=O)[C@@H](NC(=O)[C@H](N)Cc2ccccc2)CSSC[C@@H](C(=O)N[C@H](CO)[C@@H](C)O)NC1=O` [octreotide]: in assay [3], the “response 25 minutes post-treatment” value is on record as “recovered”. Also, in assay [3] (8 second 425 mA laser stimulus to face), the “response five minutes post-treatment” value was “no detectable reduction in response”. Moreover, the “response at 10 minutes post-treatment” value in assay [3] (8 second 425 mA laser stimulus, baseline 42 spikes) is 5 spikes. Moreover, the “reduction of response at 10 minutes post-treatment” value in assay [3] (versus pre-treatment baseline) is listed as 88%. The “total number of action potentials during the stimulation period, 10 minutes after administration” value in assay [4] (0.66 Hz, 2 msec, 3x C-fiber threshold, 506 before treatment) was 408. Further, the “reduction of total number of action potentials, 10 minutes after administration” value in assay [4] (versus before treatment) was 19.4%.
Tyr-Gly-Gly-Phe-Met [met-enkephalin]: the “analgesic effect, ear withdrawal latency (FIG. 1A)” value in assay [5] (laser stimulation of ears) is “achieved a regional analgesic effect in the head region”. For the same compound, the “systemic analgesic effect, hindpaw withdrawal latency (FIG. 1B)” value in assay [5] (laser stimulation of hindpaws) is “without a systemic analgesic effect at the hindpaw”.
